Source: US12310975B2, “Modulators of BCL6 proteolysis and associated methods of use” (Arvinas Operations, Inc., priority 2019, dated 2025)

Target: BCL6 (Homo sapiens (Human), UniProt P41182)
Experiment: Immunofluorescence high content imaging of BCL6 degradation in T47D cells
Assay type: cell-based
Details: class symbols A-D, read-out: EC50 (nM)*
Method: Immunofluorescence Protocol for High Cotent Imaging of BCL6
T47D cells were seeded in 100 μl volume of RPMI1640-10% FBS in a 96-well black/clear bottom plates for adherent lines (Corning #3904).
Day 1. T47D breast cancer epithelial cells were seeded at a density so that confluence is ˜70-90% at endpoint. Cells were seeded at 7K/0.1 ml/well the morning prior to the addition of exemplary bifunctional degradation compounds.
Day 2. Prepare an 11 point 3-fold serial dilution of exemplary bifunctional compound in DMSO and aliquot an appropriate volume to cell growth media to generate a 2× final concentration of exemplary bifunctional compound. Add an equal volume (0.1 ml) of 2× exemplary bifunctional compound/media mix to previously plated cells, for a final top concentration in aqueous cell growth media of 0.1 or 1 μM. Incubate for 3 days at 37° C., 5% CO2.
Day 5 Immunofluorescence. Discard cell media. Wash wells with 200 μl of room temperature phosphate-buffered saline (PBS). Prepared 4% paraformaldehyde (PFA) from 16% PFA (Electron Microscopy Sciences #15710) using 1×PBS. Fifty μl of 4% PF was added to each well and incubate for 15 minutes at room temperature to fix the cells. The PFA was aspirated and the cells washed twice with PBS (200 μl)).
Prepared 0.1% Triton X-100 in PBS using 10% triton X-100 stock. The cells were permeabilized by adding 100 ul of the 0.1% Triton X-100 in PBS to each well to permeabilize cells and incubating at room temperature for 15 minutes. Cells were washed twice with PBS.
Prepared 3% BSA/PBS (from Thermofisher #37515 Blocker BSA in TBS, 10%), and 100 ul was added to each well. The cells were incubated for at least 1 hour at room temperature.
Prepared 1% BSA/PBS using Blocker BSA/PBS, and the 3% BSA/PBS removed from the wells.
For no primary antibody controls, 50 μl 1% BSA/PBS was added.
Primary antibody (BCL6 Rb Ab, CST-14895, Cell Signaling) was diluted 1:300 in 1% BSA/PBS using Blocker BSA/PBS.
Fifty μl of primary antibody added to all remaining wells (i.e., all wells other than the primary antibody controls) and the cells were incubated overnight at 4° C. with slow orbital movement.
Day 6. Contents of the wells was removed and the cells washed four times with 200 ul PBS. 1% BSA/PBS was prepared using Blocker BSA in PBS.
Diluted secondary antibody goat anti-Rb IgG Alexa-488 1:1000, and cell mask-Alexa-647 1:3000 in 1% BSA/PBS in the same mix. Add 50 μl to each well and incubate at room temperature for 1 hour in the dark.
Cells were washed three times with 200 ul PBS, and then incubated for 10 minutes with 100 ul Hoechst dye at 1 μg/mL (20 mM stock) to stain cell nuclei. Wells were then washed with 200 μl PBS, and 100 ul of PBS was added to each well and the plate covered plate with a plastic opaque cover. Plates were stored at 4° C. and covered in aluminum foil until imaged.
Plates were equilibrated to room temperature prior to reading. The bottom of the plate was wiped with 70% isopropanol immediately prior to imaging.
10×, 4 fields/well, include Top hat smoothing in the analysis protocol.

SMILES | DC50
CNC(=O)COc1cc2cc(Nc3nc(N4CCC(OCCOCCOCCOCCOc5ccc6c(c5)CN(C5CCC(=O)NC5=O)C6=O)CC4)ncc3Cl)ccc2n(C)c1=O (stereo not drawn) [compound 59, 2-((6-((5-chloro-2-(4-(2-(2-(2-(2-((2-(2,6-dioxopiperidin-3-yl)-1-oxoisoindolin-5-yl)oxy)ethoxy)ethoxy)ethoxy)ethoxy)piperidin-1-yl)pyrimidin-4-yl)amino)-1-methyl-2-oxo-1,2-dihydroquinolin-3-yl)oxy)-N-methylacetamide] | > 100 nM
CNC(=O)COc1cc2cc(Nc3nc(N4CCC(OCCOCCOCCOCCOc5ccc6c(c5)C(=O)N(C5CCC(=O)NC5=O)C6=O)CC4)ncc3Cl)ccc2n(C)c1=O (stereo not drawn) [compound 60, 2-((6-((5-chloro-2-(4-(2-(2-(2-(2-((2-(2,6-dioxopiperidin-3-yl)-1,3-dioxoisoindolin-5-yl)oxy)ethoxy)ethoxy)ethoxy)ethoxy)piperidin-1-yl)pyrimidin-4-yl)amino)-1-methyl-2-oxo-1,2-dihydroquinolin-3-yl)oxy)-N-methylacetamide] | > 100 nM
CNC(=O)COc1cc2cc(Nc3nc(N4CCC(OCCOCCOc5ccc6c(c5)CN(C5CCC(=O)NC5=O)C6=O)CC4)ncc3Cl)ccc2n(C)c1=O (stereo not drawn) [compound 61, 2-((6-((5-chloro-2-(4-(2-(2-((2-(2,6-dioxopiperidin-3-yl)-1-oxoisoindolin-5-yl)oxy)ethoxy)ethoxy)piperidin-1-yl)pyrimidin-4-yl)amino)-1-methyl-2-oxo-1,2-dihydroquinolin-3-yl)oxy)-N-methylacetamide] | 10 to 50 nM
CNC(=O)COc1cc2cc(Nc3nc(N4CCC(OCCOCCOc5ccc6c(c5)C(=O)N(C5CCC(=O)NC5=O)C6=O)CC4)ncc3Cl)ccc2n(C)c1=O (stereo not drawn) [compound 63, 2-((6-((5-chloro-2-(4-(2-(2-((2-(2,6-dioxopiperidin-3-yl)-1,3-dioxoisoindolin-5-yl)oxy)ethoxy)ethoxy)piperidin-1-yl)pyrimidin-4-yl)amino)-1-methyl-2-oxo-1,2-dihydroquinolin-3-yl)oxy)-N-methylacetamide] | 10 to 50 nM
CNC(=O)COc1cc2cc(Nc3nc(N4CCC(OCCOCCOCCOCCOCCOc5ccc6c(c5)C(=O)N(C5CCC(=O)NC5=O)C6=O)CC4)ncc3Cl)ccc2n(C)c1=O (stereo not drawn) [compound 64, 2-((6-((5-chloro-2-(4-((14-((2-(2,6-dioxopiperidin-3-yl)-1,3-dioxoisoindolin-5-yl)oxy)-3,6,9,12-tetraoxatetradecyl)oxy)piperidin-1-yl)pyrimidin-4-yl)amino)-1-methyl-2-oxo-1,2-dihydroquinolin-3-yl)oxy)-N-methylacetamide] | > 100 nM
CNC(=O)COc1cc2cc(Nc3nc(N4CCC(OCCOCCOCCOc5ccc6c(c5)CN(C5CCC(=O)NC5=O)C6=O)CC4)ncc3Cl)ccc2n(C)c1=O (stereo not drawn) [compound 65, 2-((6-((5-chloro-2-(4-(2-(2-(2-((2-(2,6-dioxopiperidin-3-yl)-1-oxoisoindolin-5-yl)oxy)ethoxy)ethoxy)ethoxy)piperidin-1-yl)pyrimidin-4-yl)amino)-1-methyl-2-oxo-1,2-dihydroquinolin-3-yl)oxy)-N-methylacetamide] | > 100 nM
CNC(=O)COc1cc2cc(Nc3nc(N4CCC(OCCOCCOCCOCCNc5cccc6c5C(=O)N(C5CCC(=O)NC5=O)C6=O)CC4)ncc3Cl)ccc2n(C)c1=O (stereo not drawn) [compound 66, 2-((6-((5-chloro-2-(4-(2-(2-(2-(2-((2-(2,6-dioxopiperidin-3-yl)-1,3-dioxoisoindolin-4-yl)amino)ethoxy)ethoxy)ethoxy)ethoxy)piperidin-1-yl)pyrimidin-4-yl)amino)-1-methyl-2-oxo-1,2-dihydroquinolin-3-yl)oxy)-N-methylacetamide] | > 100 nM
CNC(=O)COc1cc2cc(Nc3nc(N4CCC(OCCOCCOCCOCCOCCOCCOc5ccc6c(c5)CN(C5CCC(=O)NC5=O)C6=O)CC4)ncc3Cl)ccc2n(C)c1=O (stereo not drawn) [compound 67, 2-((6-((5-chloro-2-(4-((17-((2-(2,6-dioxopiperidin-3-yl)-1-oxoisoindolin-5-yl)oxy)-3,6,9,12,15-pentaoxaheptadecyl)oxy)piperidin-1-yl)pyrimidin-4-yl)amino)-1-methyl-2-oxo-1,2-dihydroquinolin-3-yl)oxy)-N-methylacetamide] | > 100 nM
CNC(=O)COc1cc2cc(Nc3nc(N4CCC(OCCOCCOCCOCCOCCOCCOc5ccc6c(c5)C(=O)N(C5CCC(=O)NC5=O)C6=O)CC4)ncc3Cl)ccc2n(C)c1=O (stereo not drawn) [compound 68, 2-((6-((5-chloro-2-(4-((17-((2-(2,6-dioxopiperidin-3-yl)-1,3-dioxoisoindolin-5-yl)oxy)-3,6,9,12,15-pentaoxaheptadecyl)oxy)piperidin-1-yl)pyrimidin-4-yl)amino)-1-methyl-2-oxo-1,2-dihydroquinolin-3-yl)oxy)-N-methylacetamide] | > 100 nM
CNC(=O)COc1cc2cc(Nc3nc(N4CCC(OCCOCCOCCOCCOCCNc5cccc6c5C(=O)N(C5CCC(=O)NC5=O)C6=O)CC4)ncc3Cl)ccc2n(C)c1=O (stereo not drawn) [compound 69, 2-((6-((5-chloro-2-(4-((14-((2-(2,6-dioxopiperidin-3-yl)-1,3-dioxoisoindolin-4-yl)amino)-3,6,9,12-tetraoxatetradecyl)oxy)piperidin-1-yl)pyrimidin-4-yl)amino)-1-methyl-2-oxo-1,2-dihydroquinolin-3-yl)oxy)-N-methylacetamide] | > 100 nM
CNC(=O)COc1cc2cc(Nc3nc(N4CCC(OCCOCCOCC(=O)N[C@H](C(=O)N5C[C@H](O)C[C@H]5C(=O)NCc5ccc(-c6scnc6C)cc5)C(C)(C)C)CC4)ncc3Cl)ccc2n(C)c1=O [compound 70, (2S,4R)-1-((S)-2-(2-(2-(2-((1-(5-chloro-4-((1-methyl-3-(2-(methylamino)-2-oxoethoxy)-2-oxo-1,2-dihydroquinolin-6-yl)amino)pyrimidin-2-yl)piperidin-4-yl)oxy)ethoxy)ethoxy)acetamido)-3,3-dimethylbutanoyl)-4-hydroxy-N-(4-(4-methylthiazol-5-yl)benzyl)pyrrolidine-2-carboxamide] | > 100 nM
CNC(=O)COc1cc2cc(Nc3nc(N4CCC(OCCOc5ccc6c(c5)CN(C5CCC(=O)NC5=O)C6=O)CC4)ncc3Cl)ccc2n(C)c1=O (stereo not drawn) [compound 71, 2-((6-((5-chloro-2-(4-(2-((2-(2,6-dioxopiperidin-3-yl)-1-oxoisoindolin-5-yl)oxy)ethoxy)piperidin-1-yl)pyrimidin-4-yl)amino)-1-methyl-2-oxo-1,2-dihydroquinolin-3-yl)oxy)-N-methylacetamide] | 50 to 100 nM
CNC(=O)COc1cc2cc(Nc3nc(N4CCC(OCCOc5ccc6c(c5)C(=O)N(C5CCC(=O)NC5=O)C6=O)CC4)ncc3Cl)ccc2n(C)c1=O (stereo not drawn) [compound 72, 2-((6-((5-chloro-2-(4-(2-((2-(2,6-dioxopiperidin-3-yl)-1,3-dioxoisoindolin-5-yl)oxy)ethoxy)piperidin-1-yl)pyrimidin-4-yl)amino)-1-methyl-2-oxo-1,2-dihydroquinolin-3-yl)oxy)-N-methylacetamide] | 50 to 100 nM
CN1C(=O)CCc2cc(Nc3cc(OC4CCN(CCOCCOc5ccc6c(c5)C(=O)N(C5CCC(=O)NC5=O)C6=O)CC4)c([N+](=O)[O-])cc3Cl)ccc21 (stereo not drawn) [compound 73, 5-(2-(2-(4-(4-chloro-5-((1-methyl-2-oxo-1,2,3,4-tetrahydroquinolin-6-yl)amino)-2-nitrophenoxy)piperidin-1-yl)ethoxy)ethoxy)-2-(2,6-dioxopiperidin-3-yl)isoindoline-1,3-dione] | > 100 nM
O=C1CCC(N2C(=O)c3ccc(OCCOCCN4CCC(Oc5cc(Nc6ccc7c(c6)CCC(=O)N7)c(Cl)cc5[N+](=O)[O-])CC4)cc3C2=O)C(=O)N1 (stereo not drawn) [compound 74, 5-(2-(2-(4-(4-chloro-2-nitro-5-((2-oxo-1,2,3,4-tetrahydroquinolin-6-yl)amino)phenoxy)piperidin-1-yl)ethoxy)ethoxy)-2-(2,6-dioxopiperidin-3-yl)isoindoline-1,3-dione] | > 100 nM
